Results: patent US20250290117A1, “MOLECULAR PHENOTYPIC ANTIMICROBIAL SUSCEPTIBILITY TESTING” (priority 2024, published 2025)

Tests used:
Format in all cases: cell-based
Escherichia coli = test: Molecular phenotypic antimicrobial susceptibility test (extraction or DNA purification prior to PCR)
Protocol: (§1) Detection of Molecular Phenotypic Antimicrobial Susceptibility. Disclosed herein are the methods for the detection of phenotypic antimicrobial susceptibility via molecular methods. The present invention describes how a specimen 100 with a known microbial load is incubated and then exposed to a panel of antimicrobial agents to determine sensitivity (prevention of growth) or resistance (allowance of growth) to the specific antimicrobial agents tested utilizing molecular methods.
(§2) Sample Collection. Specimens 100 are collected from patients using sterile collection processes that are employed in routine clinical care. Specimens are transported to the testing facility in boric acid preservative.
(§3) Preparation of the Specimens for Testing. […] The process for pathogen isolation includes steps of harvesting the pathogen (e.g., via centrifugation), isolating pathogen DNA via a DNA isolation and/or purification kit, and performing PCR on the pathogen DNA via PCR components (e.g., primers, enzymes, buffers) as would be known to the skilled artisan. […] This aliquot is used for antimicrobial susceptibility testing if indicated based on the pathogen detection results. […] Specimens 100 with lower pathogen loads could also be utilized in the antibiotic susceptibility phase of testing with or without a longer incubation period.
(§4) Preparation of Antimicrobial Susceptibility Testing Plates. Antimicrobial solutions are prepared at known concentrations. The specific antimicrobials and their concentrations are selected based on the pathogen of interest and the described antimicrobial resistance breakpoints for that specimen pathogen and antimicrobial combination. These antimicrobials have been selected based on those commonly utilized by healthcare providers in routine clinical care for the specific type of suspected infection. The number and types of antimicrobials utilized can be customized based on the infection source, pathogen detected, patient-specific factors such as allergies or other health conditions (e.g., chronic kidney disease or concurrent medication use), or healthcare provider preferences such as antimicrobial availability or cost.
(§5) The antimicrobial solutions are prepared in liquid culture media (such as Muller Hinton Broth) to achieve the desired antimicrobial concentration and are then stored at −80° C. until use. For a given specimen, each antimicrobial is tested at a single or multiple antimicrobial concentration(s) which is its established breakpoints for sensitivity. The antimicrobial solutions are prepared and plated out for each specific pathogen. […] This allows for evaluation of pathogen load when no antimicrobial is present.
(§6) Specimen Exposure to Antimicrobial Agents. The 1 mL aliquot of the specimen 100 previously mixed with culture media and incubated is obtained. Using optical density measurements as a guide, the specimen 100 is diluted to 0.5 McFarland.
(§7) Antimicrobial exposure plates are typically placed into an incubator for 12-16 hours.
(§8) Nucleic Acid Amplification of Antimicrobial Agent Exposed Pathogens. The antimicrobial exposure plate is removed after the period of incubation. The specimen then undergoes a purification or lysis step. For example, the specimen may undergo a purification step (e.g., magnetic bead-based or other separation protocol to isolate genetic material). In another example, the specimen may undergo a cell lysis step. For example, buffer (e.g., lysis buffer) may be added and incubated in the thermal cycler for preparation for direct PCR. Next, the specimen may undergo a polymerase chain reaction (PCR) testing protocol, whereby a semi-quantitative PCR method is utilized. This may be completed either with or without a specific extraction protocol step. The pathogens can be individually targeted and detected, or a universal genetic sequence can be utilized to detect the antimicrobial susceptibility of the specimen as a whole.

[1] = test system: pathogens of clinical samples; test: Molecular phenotypic antimicrobial susceptibility test of clinical samples, extraction DNA purification step prior to PCR (Table 6)
Protocol: as §1, §2, §3, §4, §5, §6, §7, §8

[2] = test system: pathogens of clinical samples; test: Molecular phenotypic antimicrobial susceptibility test of clinical samples, direct PCR without a separate DNA purification step (Table 6)
Protocol: as §1, §2, §3, §4, §5, §6, §7, §8

[3] = E. coli, clinical sample of r10-r24
[4] = E. coli, clinical sample of r158-r172
[5] = E. faecalis, clinical sample of r93-r99
[6] = E. faecalis, clinical sample of r114-r120
[7] = E. faecalis, clinical sample of r151-r157
[8] = K. aerogenes, clinical sample of r136-r150
[9] = K. pneumoniae, clinical sample of r121-r135
[10] = M. morganii, clinical sample of r55-r69
[11] = M. morganii, clinical sample of r70-r84
[12] = P. mirabilis, clinical sample of r25-r39
[13] = P. mirabilis, clinical sample of r40-r54
[14] = S. aureus, clinical sample of r85-r92

O=C1CN(/N=C/c2ccc([N+](=O)[O-])o2)C(=O)N1 [Nitrofurantoin]
Ct at Sensitive Breakpoint (Escherichia coli; E. coli isolate 1, Ct at control (average) 21.238): 35.690
Molecular Antimicrobial Susceptibility Result (Escherichia coli; E. coli isolate 1, at sensitive breakpoint): Sensitive (Antimicrobial wells with pathogen load detected below the control wells (typically >2 cycle thresholds later) may be reported as Sensitive)
Ct at Sensitive Breakpoint (Escherichia coli; E. coli isolate 2, Ct at control (average) 21.270): 30.495
Molecular Antimicrobial Susceptibility Result (Escherichia coli; E. coli isolate 2, at sensitive breakpoint): Sensitive (Antimicrobial wells with pathogen load detected below the control wells (typically >2 cycle thresholds later) may be reported as Sensitive)
Ct at Sensitive Breakpoint (Escherichia coli; E. coli isolate 3, Ct at control (average) 22.0995): 21.722
Molecular Antimicrobial Susceptibility Result (Escherichia coli; E. coli isolate 3, at sensitive breakpoint): Sensitive (Antimicrobial wells with pathogen load detected below the control wells (typically >2 cycle thresholds later) may be reported as Sensitive)
Ct at Sensitive Breakpoint (Escherichia coli; E. coli isolate 4, Ct at control (average) 17.5733): 32.06
Molecular Antimicrobial Susceptibility Result (Escherichia coli; E. coli isolate 4, at sensitive breakpoint): Sensitive (Antimicrobial wells with pathogen load detected below the control wells (typically >2 cycle thresholds later) may be reported as Sensitive)
Ct at Sensitive Breakpoint (Escherichia coli; E. coli isolate 5, Ct at control (average) 21.0933): 33.53
Molecular Antimicrobial Susceptibility Result (Escherichia coli; E. coli isolate 5, at sensitive breakpoint): Sensitive (Antimicrobial wells with pathogen load detected below the control wells (typically >2 cycle thresholds later) may be reported as Sensitive)
Molecular Antibiotic Susceptibility Result [1, 3]: Sensitive (Antimicrobial wells with pathogen load detected below the control wells (typically >2 cycle thresholds later) may be reported as Sensitive)
Ct ([1]; E. coli, clinical sample of r10-r24, Ct Control Avg 18.112): 29.981
Molecular Antibiotic Susceptibility Result [1, 4]: Sensitive (Antimicrobial wells with pathogen load detected below the control wells (typically >2 cycle thresholds later) may be reported as Sensitive)
Ct ([1]; E. coli, clinical sample of r158-r172, Ct Control Avg 20.146): 34.794
Molecular Antibiotic Susceptibility Result [1, 5]: Sensitive (Antimicrobial wells with pathogen load detected below the control wells (typically >2 cycle thresholds later) may be reported as Sensitive)
Ct ([1]; E. faecalis, clinical sample of r93-r99, Ct Control Avg 22.987): 38.744
Ct ([1]; E. faecalis, clinical sample of r100-r106, Ct Control Avg 23.073): 37.449
Ct ([1]; E. faecalis, clinical sample of r107-r113, Ct Control Avg 22.144): 32.584
Molecular Antibiotic Susceptibility Result [1, 6]: Sensitive (Antimicrobial wells with pathogen load detected below the control wells (typically >2 cycle thresholds later) may be reported as Sensitive)
Ct ([1]; E. faecalis, clinical sample of r114-r120, Ct Control Avg 20.822): 34.318
Molecular Antibiotic Susceptibility Result [1, 7]: Sensitive (Antimicrobial wells with pathogen load detected below the control wells (typically >2 cycle thresholds later) may be reported as Sensitive)
Molecular Antibiotic Susceptibility Result [1, 8]: Sensitive (Antimicrobial wells with pathogen load detected below the control wells (typically >2 cycle thresholds later) may be reported as Sensitive)
Ct ([1]; K. aerogenes, clinical sample of r136-r150, Ct Control Avg 19.994): 38.755
Molecular Antibiotic Susceptibility Result [1, 9]: Sensitive (Antimicrobial wells with pathogen load detected below the control wells (typically >2 cycle thresholds later) may be reported as Sensitive)
Ct ([1]; K. pneumoniae, clinical sample of r121-r135, Ct Control Avg 24.272): 33.13
Molecular Antibiotic Susceptibility Result [1, 10]: Sensitive (Antimicrobial wells with pathogen load detected below the control wells (typically >2 cycle thresholds later) may be reported as Sensitive)
Molecular Antibiotic Susceptibility Result [1, 11]: Sensitive (Antimicrobial wells with pathogen load detected below the control wells (typically >2 cycle thresholds later) may be reported as Sensitive)
Molecular Antibiotic Susceptibility Result [1, 12]: Resistant
Ct ([1]; P. mirabilis, clinical sample of r25-r39, Ct Control Avg 26.064): 22.903
Molecular Antibiotic Susceptibility Result [1, 13]: Resistant
Ct ([1]; P. mirabilis, clinical sample of r40-r54, Ct Control Avg 26.987): 23.887
Molecular Antibiotic Susceptibility Result [1, 14]: Sensitive (Antimicrobial wells with pathogen load detected below the control wells (typically >2 cycle thresholds later) may be reported as Sensitive)
Ct ([1]; S. aureus, clinical sample of r85-r92, Ct Control Avg 24.32): 30.822
Molecular Antibiotic Susceptibility Result [2, 3]: Sensitive (Antimicrobial wells with pathogen load detected below the control wells (typically >2 cycle thresholds later) may be reported as Sensitive)
Ct ([2]; E. coli, clinical sample of r10-r24, Ct control avg 12.97): 24.883
Molecular Antibiotic Susceptibility Result [2, 4]: Sensitive (Antimicrobial wells with pathogen load detected below the control wells (typically >2 cycle thresholds later) may be reported as Sensitive)
Ct ([2]; E. coli, clinical sample of r158-r172, Ct control avg 12.894): 27.377
Molecular Antibiotic Susceptibility Result [2, 5]: Sensitive (Antimicrobial wells with pathogen load detected below the control wells (typically >2 cycle thresholds later) may be reported as Sensitive)
Ct ([2]; E. faecalis, clinical sample of r93-r99, Ct control avg 22.011): 36.826
Ct ([2]; E. faecalis, clinical sample of r100-r106, Ct control avg 21.027): 33.684
Ct ([2]; E. faecalis, clinical sample of r107-r113, Ct control avg 20.529): 32.294
Molecular Antibiotic Susceptibility Result [2, 6]: Sensitive (Antimicrobial wells with pathogen load detected below the control wells (typically >2 cycle thresholds later) may be reported as Sensitive)
Ct ([2]; E. faecalis, clinical sample of r114-r120, Ct control avg 20.909): 32.771
Molecular Antibiotic Susceptibility Result [2, 7]: Sensitive (Antimicrobial wells with pathogen load detected below the control wells (typically >2 cycle thresholds later) may be reported as Sensitive)
Ct ([2]; E. faecalis, clinical sample of r151-r157, Ct control avg 18.551): 37.634
Molecular Antibiotic Susceptibility Result [2, 8]: Sensitive (Antimicrobial wells with pathogen load detected below the control wells (typically >2 cycle thresholds later) may be reported as Sensitive)
Ct ([2]; K. aerogenes, clinical sample of r136-r150, Ct control avg 13.854): 29.821
Molecular Antibiotic Susceptibility Result [2, 9]: Sensitive (Antimicrobial wells with pathogen load detected below the control wells (typically >2 cycle thresholds later) may be reported as Sensitive)
Ct ([2]; K. pneumoniae, clinical sample of r121-r135, Ct control avg […]): 28.708
Molecular Antibiotic Susceptibility Result [2, 10]: Sensitive (Antimicrobial wells with pathogen load detected below the control wells (typically >2 cycle thresholds later) may be reported as Sensitive)
Ct ([2]; M. morganii, clinical sample of r55-r69, Ct control avg 12.09): 28.588
Molecular Antibiotic Susceptibility Result [2, 11]: Sensitive (Antimicrobial wells with pathogen load detected below the control wells (typically >2 cycle thresholds later) may be reported as Sensitive)
Ct ([2]; M. morganii, clinical sample of r70-r84, Ct control avg 11.677): 29.959
Molecular Antibiotic Susceptibility Result [2, 12]: Resistant
Ct ([2]; P. mirabilis, clinical sample of r25-r39, Ct control avg 11.801): 12.013
Molecular Antibiotic Susceptibility Result [2, 13]: Resistant
Ct ([2]; P. mirabilis, clinical sample of r40-r54, Ct control avg 10.06): 10.329
Molecular Antibiotic Susceptibility Result [2, 14]: Sensitive (Antimicrobial wells with pathogen load detected below the control wells (typically >2 cycle thresholds later) may be reported as Sensitive)
Ct ([2]; S. aureus, clinical sample of r85-r92, Ct control avg 20.309): 32.477
